In PubChem BioAssay AID1159585 (Gregory J. Crowther, 2016):

molecular target: Calcium-dependent protein kinase 1 (Plasmodium falciparum (isolate 3D7)) (UniProt P62344); experiment: PfCDPK1 kinase inhibitors, biochemical, TCAMS library (AID 1159585); conditions: recombinant PfCDPK1, Kinase-Glo ATP depletion luminescence;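 also: inhibitors leave more ATP so luminescence rises with inhibition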
Sequence (P62344 whole entry, looked up): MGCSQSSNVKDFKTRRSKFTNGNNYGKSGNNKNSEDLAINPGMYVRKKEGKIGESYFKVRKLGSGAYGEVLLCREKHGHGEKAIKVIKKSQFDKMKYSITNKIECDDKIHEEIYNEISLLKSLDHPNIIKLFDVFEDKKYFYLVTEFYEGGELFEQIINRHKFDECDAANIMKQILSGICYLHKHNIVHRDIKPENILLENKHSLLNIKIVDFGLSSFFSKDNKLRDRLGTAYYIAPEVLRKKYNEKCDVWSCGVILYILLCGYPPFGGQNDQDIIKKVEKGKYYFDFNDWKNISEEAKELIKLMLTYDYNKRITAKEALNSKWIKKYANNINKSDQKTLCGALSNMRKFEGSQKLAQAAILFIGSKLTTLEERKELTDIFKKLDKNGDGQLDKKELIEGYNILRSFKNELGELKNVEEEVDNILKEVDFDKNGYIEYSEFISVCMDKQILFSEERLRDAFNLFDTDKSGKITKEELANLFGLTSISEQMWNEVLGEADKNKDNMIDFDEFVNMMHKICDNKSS

Row | Compound | IC50
1 | COc1ccc(-c2cnc3ccc(N4CCCC4)nn23)cc1OC | 310 nM
2 | COc1ccc(-c2cnc3ccc(NCCCO)nn23)cc1OC | 361 nM
3 | c1cncc(Oc2ccc(Nc3ccnc4cc(-c5cccc(CNCCN6CCOCC6)c5)ccc34)cc2)c1 | 705 nM
4 | CN(C)CCNCc1cccc(-c2ccc3c(Nc4ccc(Oc5ccccn5)cc4)ccnc3c2)c1 | 845 nM
5 | CN(C)CCN(C)Cc1ccc(-c2ccc3c(Nc4ccc(Oc5ccccc5)cc4)ccnc3c2)o1 | 718 nM
6 | CC(C)(CNCc1ccc(OC(F)(F)F)cc1)c1nc(-c2ccc(Cl)c(O)c2)c(-c2ccncc2)[nH]1 | 438 nM
7 | CCOC(=O)c1cccc(NC(=O)Nc2cccc(-c3ncc(OCCCN)c4c3nc(-c3nonc3N)n4CC)c2)c1 | 294 nM
8 | Nc1ncc(-c2cn[nH]c2)cc1-c1nc2ccc(Cl)cc2[nH]1 | 834 nM
9 | CC(C)(CNC(=O)C1CCN(Cc2ccoc2)CC1)c1nc(-c2ccc(Cl)c(O)c2)c(-c2ccncc2)[nH]1 | 425 nM
10 | CS(=O)(=O)Nc1cccc(-c2cnc3[nH]cc(-c4cccc(CN)c4)c3c2)c1 | 387 nM
11 | CC(C)(CNCc1ccc(C(F)(F)F)cc1)c1nc(-c2ccc(Cl)c(O)c2)c(-c2ccnc(N)n2)[nH]1 | 353 nM
12 | COc1ccc(Nc2ncc(Cl)c(Nc3cccnc3C(N)=O)n2)cc1N1CCN(C)CC1 | 559 nM
13 | COc1ccc(-c2cnn3ccc(Nc4cc(OC)c(OC)c(OC)c4)nc23)cc1OC | 157 nM
14 | CN(C)CCOc1ccc(-c2cc(-c3ccnc(N)n3)c(-c3ccc(Cl)c(O)c3)o2)cc1 | 684 nM
15 | CC(C)(CNCc1ccc(Cl)cc1)c1nc(-c2ccc(Cl)c(O)c2)c(-c2ccncc2)[nH]1 | 257 nM
16 | CCn1c(-c2nonc2N)nc2c(-c3cccc(Cl)c3)ncc(OCCCNCc3cnc(C)nc3N)c21 | 271 nM
17 | CN(C)Cc1ccc(-c2ccc3c(Nc4ccc(Cl)cc4F)ccnc3c2)o1 | 185 nM
18 | CC(C)(CNCc1ccc(Cl)c(Cl)c1)c1nc(-c2ccc(Cl)c(O)c2)c(-c2ccncc2)[nH]1 | 539 nM
19 | OC1CCC(Nc2ccc3ncc(-c4ccc(Cl)cc4)n3n2)CC1 (configuration not stated) | 503 nM

Row | Compound | IC50
20 | c1ccc(Oc2ccc(Nc3ccnc(Nc4ccc5cn[nH]c5c4)n3)cc2)cc1 | 765 nM
21 | NCc1ccc(Nc2nccc(Nc3ccc(-c4ccccc4)cc3)n2)cc1 | 375 nM
22 | CN(C)CCNCc1ccc(-c2ccc3c(Nc4ccc(Oc5ccccc5)cc4)ccnc3c2)o1 | 681 nM
23 | COCCOc1ccc(Nc2nccc(-c3c(-c4cccc(NC(=O)c5c(F)cccc5F)c4)nn4ccccc34)n2)cc1Cl | 152 nM
24 | Cc1nnc(-c2cccc(Nc3ccnc4cc(-c5nccs5)ccc34)c2)o1 | 186 nM
25 | Cc1ccc(Nc2nccc(Nc3ccc4c(c3)nc(Nc3cc(C(C)(C)C)on3)n4C)n2)cc1S(C)(=O)=O | 242 nM
26 | Nc1ncc(-c2cn[nH]c2)cc1-c1nc2ccc(F)cc2[nH]1 | 150 nM
27 | CC(=O)Nc1cccc(Nc2nccc(Nc3ccc(Oc4ccccc4)cc3)n2)c1 | 425 nM
28 | CN(C)Cc1ccc(-c2ccc3c(Nc4ccc(Oc5ccccn5)cc4)ccnc3c2)o1 | 513 nM
29 | O=C(NCCN1CCCCC1)c1cccc(Nc2nccc(Nc3ccc(Oc4ccccc4)cc3)n2)c1 | 250 nM
30 | CNC(=O)c1ccccc1Nc1nc(Nc2cccc(CS(C)(=O)=O)c2)ncc1C | 145 nM
31 | O=C(NCCN1CCC(c2ccncc2)CC1)c1cccc(Nc2nccc(Nc3ccc(Oc4ccccc4)cc3)n2)c1 | 220 nM
32 | Cc1cccc(Nc2nc(NCCCCN)nc3cc[nH]c(=O)c23)c1 | 566 nM
33 | COc1ccc(Nc2ncc3c(-c4cccc(NC(=O)Cc5cccc(O)c5)c4)c[nH]c3n2)cc1OC | 312 nM
34 | CCn1c(-c2nonc2N)nc2c(-c3cccc(NC(=O)Nc4cccc(Cl)c4)c3)ncc(OCCCN)c21 | 379 nM
35 | CC(C)(CNC(=O)C1CCN(Cc2ccc(Cl)cc2)CC1)c1nc(-c2ccc(Cl)c(O)c2)c(-c2ccncc2)[nH]1 | 347 nM
36 | COCCNCc1cccc(-c2ccc3c(Nc4ccc(Oc5cccnc5)cc4)ccnc3c2)c1 | 913 nM
37 | COc1cc2nccc(Nc3ccc(Oc4ccccc4)cc3)c2cc1OC | 145 nM
38 | Cc1ccc(Nc2ccnc(Nc3ccc4c(c3)CS(=O)(=O)C4)n2)cc1O | 416 nM

Row | Compound | IC50
39 | CS(=O)(=O)CCNCc1cccc(-c2ccc3c(Nc4ccc(Oc5cccnc5)cc4)ccnc3c2)c1 | 966 nM
40 | CC(C)(CNC(=O)C1CCN(CCOCc2ccccc2)CC1)c1nc(-c2ccc(Cl)c(O)c2)c(-c2ccncc2)[nH]1 | 734 nM
41 | Cc1cccc2[nH]c(-c3cc(-c4cn[nH]c4)cnc3N)nc12 | 296 nM
42 | Oc1cc(-c2nc(-c3ccccc3)[nH]c2-c2ccncc2)ccc1Cl | 975 nM
43 | CN1CCN(c2ccc(Nc3nccc(-c4cnn5ncccc45)n3)cc2Cl)CC1 | 232 nM
44 | COc1ccc(CNCC(C)(C)c2nc(-c3ccc(Cl)c(O)c3)c(-c3ccncc3)[nH]2)cc1 | 186 nM
45 | CS(=O)(=O)Nc1cccc(-c2cnc3[nH]cc(-c4ccc(CN)cc4)c3c2)c1 | 552 nM
46 | Oc1cccc(Nc2ccnc3cc(-c4ccncc4)ccc23)c1 | 884 nM
47 | COCCNCc1cccc(-c2ccc3c(Nc4cc(O)c(Cl)cc4F)ccnc3c2)c1 | 436 nM
48 | O=C(NCCCN1CCOCC1)c1cccc(Nc2nccc(Nc3ccc(Oc4ccccc4)cc3)n2)c1 | 180 nM
49 | CN(C(=O)c1cc2c(-c3cncnc3)cccc2[nH]1)c1ccccc1 | 271 nM
50 | CC(C)(CNC(=O)[C@H]1CCCN1)c1nc(-c2ccc(Cl)c(O)c2)c(-c2ccncc2)[nH]1 | 179 nM
51 | CC(C)(CNCc1ccc(F)c(F)c1)c1nc(-c2ccc(Cl)c(O)c2)c(-c2ccnc(N)n2)[nH]1 | 469 nM
52 | NC(=O)c1ccccc1Nc1nc(Nc2ccn[nH]2)ncc1Cl | 186 nM
53 | CCn1c(-c2nonc2N)nc2c(-c3cccc(NC(=O)Nc4ccc(C(F)(F)F)cc4)c3)ncc(OCCCN)c21 | 959 nM
54 | N#Cc1ccc(-c2cnc3ccc(NCCc4cccnc4)nn23)cc1 | 246 nM
55 | NCCCNc1nc(Nc2cccc(C(N)=O)c2)c2c(=O)[nH]ccc2n1 | 750 nM
56 | CC(C)(CNC(=O)[C@H]1CCCCN1)c1nc(-c2ccc(Cl)c(O)c2)c(-c2ccncc2)[nH]1 | 164 nM

Continued by falling IC50, values first:

Row | IC50 | Compound
57 | 145 nM | CCNC(=O)Nc1ccc(-c2cnc(N)c(-c3nc4ccc(OC)cc4[nH]3)c2)cc1
58 | 145 nM | CS(=O)(=O)Cc1ccc(Nc2nccc(N3CCCc4cc(NC(=O)Nc5cccc(C(F)(F)F)c5)ccc43)n2)cc1
59 | 139 nM | CN1CCN(CCCNCc2ccc(Nc3nccc(Nc4ccc(Oc5ccccc5)cc4)n3)cc2)CC1
60 | 115 nM | Oc1cccc(-c2cnc3ccc(NCc4ccc(F)cc4)nn23)c1
61 | 114 nM | Cn1c(Nc2cc(C(C)(C)C)on2)nc2cc(Nc3ccnc(Nc4cccc(CS(C)(=O)=O)c4)n3)ccc21
62 | 98 nM | COc1ccc(Nc2ncc3c(-c4cccc(NC(=O)Cc5ccc(O)cc5)c4)c[nH]c3n2)cc1OC
63 | 95 nM | CC(c1cccc(Nc2nccc(-c3c(-c4cccc(NC(=O)c5c(F)cccc5F)c4)nn4ncccc34)n2)c1)S(C)(=O)=O (configuration not stated)
64 | 92 nM | O=C(Nc1cccc(-c2nn3ccccc3c2-c2ccnc(Nc3ccc(C(=O)N4CCOCC4)cc3)n2)c1)c1c(F)cccc1F
65 | 89 nM | COc1ccc(Nc2ncc(C#N)c(Nc3ccccc3C(N)=O)n2)cc1N1CCN(C)CC1
66 | 85 nM | CCn1c(-c2nonc2N)nc2c(-c3cccc(NC(=O)Nc4ccc5c(c4)CCC5)c3)ncc(OCCCN)c21
67 | 83 nM | NS(=O)(=O)c1cccc(Nc2nc(N[C@@H]3CCNC3)nc3cc[nH]c(=O)c23)c1
68 | 72 nM | CCn1c(-c2nonc2N)nc2c(-c3cccc(NC(=O)Nc4ccccc4Cl)c3)ncc(OCCCN)c21
69 | 51 nM | CCn1c(-c2nonc2N)nc2c(-c3ccc(CO)o3)ncc(OCCCN)c21
70 | 50 nM | CS(=O)(=O)Cc1ccc(Nc2nccc(-c3c(-c4cccc(C(=O)Nc5c(F)cccc5F)c4)nn4ccccc34)n2)cc1
71 | 49 nM | CNCC(C)(C)c1nc(-c2ccc(Cl)c(O)c2)c(-c2ccncc2)[nH]1
72 | 48 nM | NS(=O)(=O)c1ccc(Nc2nccc(-c3c(-c4cccc(NC(=O)c5c(F)cccc5F)c4)nn4ccccc34)n2)cc1
73 | 47 nM | CNC(=O)c1ccccc1Nc1nc(Nc2ccc(CCN3CCN(C)CC3)cc2)ncc1Cl
74 | 46 nM | Cn1cc(-c2ccnc3[nH]c(-c4cccc(CNC5CCC(O)CC5)c4)cc23)cn1 (configuration not stated)

Row | IC50 | Compound
75 | 44 nM | Cc1csc(-c2ncc(OC[C@@H](N)Cc3ccccc3)cc2-c2ccc3n[nH]c(C)c3c2)c1
76 | 44 nM | CS(=O)(=O)c1cccc(-c2cnc3[nH]cc(-c4cccc(CCN)c4)c3c2)c1
77 | 44 nM | CCn1c(-c2nonc2N)nc2c(-c3cccc(NC(=O)Nc4ccc(Cl)cc4)c3)ncc(OCCCN)c21
78 | 39 nM | O=C(Nc1cccc(-c2nn3ncccc3c2-c2ccnc(Nc3ccccc3)n2)c1)c1c(F)cccc1F
79 | 35 nM | CN1CCN(c2ccc(Nc3nccc(-c4c(-c5cccc(NC(=O)c6c(F)cccc6F)c5)nn5ccccc45)n3)cc2)CC1
80 | 32 nM | CCn1c(-c2nonc2N)nc2c(-c3cccc(NC(=O)Nc4ccccc4OC)c3)ncc(OCCCN)c21
81 | 29 nM | NCC(NC(=O)c1ccc(-c2c[nH]c3ncccc23)s1)c1ccccc1 (configuration not stated)
82 | 26 nM | O=C(NC1CC1)c1ccc(Nc2nccc(-c3c(-c4cccc(NC(=O)c5c(F)cccc5F)c4)nn4ccccc34)n2)cc1
83 | 23 nM | Cc1cccc(Nc2nc(N[C@@H]3CCCNC3)nc3cc[nH]c(=O)c23)c1
84 | 21 nM | CC(c1cccc(Nc2nccc(-c3c(-c4cccc(NC(=O)c5c(F)cccc5F)c4)nn4ccccc34)n2)c1)S(C)(=O)=O (configuration not stated)
85 | 20 nM | NS(=O)(=O)c1cccc(Nc2nccc(-c3c(-c4cccc(NC(=O)c5c(F)cccc5F)c4)nn4ccccc34)n2)c1
86 | 20 nM | CS(=O)(=O)Cc1ccc(Nc2nccc(-c3c(-c4cccc(NC(=O)c5c(F)cccc5F)c4)nn4ccccc34)n2)cc1
87 | 19 nM | CC(C)(CN)c1nc(-c2ccc(Br)c(O)c2)c(-c2ccncc2)[nH]1
88 | 15 nM | CCn1c(-c2nonc2N)nc2c(-c3cccc(NC(=O)Nc4cccc(C(F)(F)F)c4)c3)ncc(OCCCN)c21
89 | 14 nM | NCC1(c2nc(-c3ccc(Cl)c(O)c3)c(-c3ccncc3)[nH]2)CCCCC1
90 | 13 nM | CC(C)(CN)c1cc(-c2ccc(Cl)c(O)c2)c(-c2ccncc2)o1
91 | 12 nM | CN1CCN(c2ccc(Nc3ncc(C#N)c(Nc4ccccc4C(N)=O)n3)cc2)CC1
92 | 12 nM | CN1CCN(c2ccc(Nc3ncc(Cl)c(Nc4cccnc4C(N)=O)n3)cc2)CC1
